Laboratory results published in patent publication US20190017026A1, “METHOD AND DEVICE FOR CONSERVING VIABLE AND FUNCTIONAL HUMAN POLYMORPHONUCLEAR NEUTROPHILS” (INSTITUT PASTEUR, priority 2014, published 2019).
Entries after “also recorded” stand apart in the source; their conditions may differ. Structures can show the parent of a compound that is named as a salt.

Experiments:
neutrophils = settings: normoxic conditions; cited from earlier work
human neutrophils = experiment: Neutrophil survival rate by flow cytometry (Annexin V-/PI-) upon storage; type: cell-based; settings: for neutrophil survival rate (Annexin V-/PI-): 3 mM glucose, 32 μg/mL DMOG
Description: Neutrophils fractions with a >95% purity obtained by applying Method 1 or Method 2 were resuspended at a 5×10^6 cells/mL concentration in RPMI 1640 with L Glutamine and 25 mM Hepes (Gibco, Life Technologies), 10% of heat inactivated Foetal Bovine Serum (FBS) (Invitrogen, Gibco) and indicated concentrations of glucose (Sigma-Aldrich) and Dimethyloxalylglycine or DMOG (Cayman Chemical Company). For comparative experiments aiming at characterizing the role of oxygen on neutrophils survival, purified neutrophils (Method 1 or Method 2) were split in two identical fractions. One was stored at 37° C. with 5% CO2 under atmospheric conditions (20% O2 condition, +O2). The second one was stored at 37° C. in an anoxic chamber ([…], Don […]) under an atmosphere containing 90% N2, 5% CO2 and 5% H2 (0% O2 condition, -O2), during indicated time. Cell viability. For neutrophil survival analysis, human neutrophils (1×10^6) were washed twice in PBS and then resuspended in 1 ml of Annexin V binding Buffer. A 100 μl sample (1×10^5 cells) was stained with 5 μl of APC-Annexin V and 5 μl of Propidium iodide (PI) (0.5 μg/ml final concentration) as recommended by the manufacturer. At least 10^4 events were acquired for each condition on a FACSCaliburTM flow cytometer (BD Biosciences), and data were analyzed using CellQuestTM Pro Software (BD Biosciences). Viable cells were defined as Annexin V-/PI- quantifications. In this study, neutrophil survival rate was evaluated in various conditions by flow cytometry, by quantifying the proportion of viable (propidium iodide negative staining, PI-) and non-apoptotic (Annexin V negative staining, Annexin V-) cells.

## COC(=O)CNC(=O)C(=O)OC [DMOG, Dimethyloxalylglycine]
neutrophils
  effect on neutrophil apoptosis: decreases apoptosis
Human neutrophils; citrate (Method 2), anoxia, 20 h
  neutrophil survival rate (Annexin V-/PI-): 70±8%
Human neutrophils; citrate (Method 2), anoxia, 48 h
  neutrophil survival rate (Annexin V-/PI-): 49±2%
Human neutrophils; heparin (Method 1), absence of oxygen, 20 h storage
  neutrophil survival rate (Annexin V-/PI-): 54+10%
Human neutrophils; heparin (Method 1), absence of oxygen, 48 h storage
  neutrophil survival rate (Annexin V-/PI-): 14+10%

## O=C(O)CN(CCN(CC(=O)O)CC(=O)O)CC(=O)O [EDTA]
Human neutrophils; blood collected with EDTA instead of citrate
  neutrophils survival as compared to citrate at blood collection: even better results

## O=C(O)CC(O)(CC(=O)O)C(=O)O [citrate, sodium citrate]
Human neutrophils; blood collected with citrate, presence or absence of oxygen, 20 h and 48 h post purification
  neutrophils survival rate as compared to heparin as anticoagulant: significant increase of neutrophils survival rate; also recorded: improved
